Read-outs that look alike come from different tables or passages of the source. *1 amine or outer side, *2 acyl side, *3 side chain or, on linkers, in order; H or OH if unused. Where a SMILES comes first, the peptide text is derived from it. Bridges are numbered along the chain shown (N, C = ends). Roman numbers before positions name the chains, in order. [ ]: non-standard residue; d: D form. Actinocin(9to1) = Cc1c2oc3c(C)ccc(C(=O)[*:1])c3nc-2c(C(=O)[*:2])c(N)c1=O; NMeV = CN[C@H](C(=O)O)C(C)C; Sar = CNCC(=O)O
Experiments:
Format in all cases: cell-based
[1] = tested on: GIST-T1 cells; assay: Quantitative drug screen, CellTiter-Blue cell viability, GIST-T1; conditions: read-out: IC50 GIST-T1
[2] = tested on: ULTR cells; assay: Quantitative drug screen, CellTiter-Blue cell viability, ULTR; conditions: read-out: IC50 ULTR
[3] = tested on: GIST T1-10R cells; assay: Quantitative drug screen, CellTiter-Blue cell viability, GIST T1-10R; conditions: 72 h, read-out: IC50 GIST TI-10R
[4] = tested on: GIST 882 cells; assay: Quantitative drug screen, CellTiter-Blue cell viability, GIST 882; conditions: Homo sapiens, GIST882, 72 h, read-out: IC50 GIST 882
[5] = tested on: Hs 919.T. cells; assay: Drug screen assay in Hs 919.T. cell line at 1 μM; conditions: 72 h; for inhibition at 1 µM: read-out: inhibition against Hs 919.T. cell proliferation
[6] = tested on: GIST 882 cells; assay: Hit validation cell proliferation, 12-point dose-response, GIST 882; conditions: Homo sapiens, GIST882, 72 h, read-out: IC50 GIST 882
[7] = tested on: GIST T1-10R cells; assay: Hit validation cell proliferation, 12-point dose-response, GIST T1-10R; conditions: 72 h, read-out: IC50 GIST T1-10R
[8] = tested on: Hs 919.T. cells; assay: Hit validation cell proliferation, 12-point dose-response, Hs 919.T.; conditions: read-out: IC50 Hs 919.T.

| Compound | IC50 ([2]; 72 h) [nM] | IC50 [3] [nM] | IC50 [4] [nM] | inhibition at 1 µM [5] [%] | other results |
| --- | --- | --- | --- | --- | --- |
| Cc1cn(-c2cc(NC(=O)c3ccc(C)c(Nc4nccc(-c5cccnc5)n4)c3)cc(C(F)(F)F)c2)cn1 [Nilotimb] | – | – | – | – | IC50 ([1]; primary screen, 72 h, 10 μM to […] twofold dilutions, * = IC50 < 0.07 μM and drug showed no dose response): 380 nM |
| COc1cc(NS(C)(=O)=O)ccc1Nc1c2ccccc2nc2ccccc12 [Amsacrine] | > 1000 | > 1000 | > 1000 | – | – |
| O=C1c2c(O)ccc(O)c2C(=O)c2c(NCCNCCO)ccc(NCCNCCO)c21 [Mitoxantrone] | < 70 | > 1000 | 80 | > 50 | – |
| CCC1=C[C@@H]2CN(C1)Cc1c([nH]c3ccccc13)[C@@](C(=O)OC)(c1cc3c(cc1OC)N(C)[C@H]1[C@@](O)(C(=O)OC)[C@H](OC(C)=O)[C@]4(CC)C=CCN5CC[C@]31[C@@H]54)C2 [Vinorelbine] | 80 | > 1000 | > 1000 | > 50 | – |
| COc1cc([C@@H]2c3cc4c(cc3[C@@H](O[C@@H]3O[C@@H]5CO[C@@H](c6cccs6)O[C@H]5[C@H](O)[C@H]3O)[C@H]3COC(=O)[C@H]23)OCO4)cc(OC)c1O [Teniposide] | 190 | > 1000 | 90 | – | – |
| CCCSc1ccc2nc(NC(=O)OC)[nH]c2c1 [Albendazole] | 320 | > 1000 | > 1000 | – | – |
| COC(=O)Nc1nc2ccc(C(=O)c3ccccc3)cc2[nH]1 [Mebendazole] | 730 | > 1000 | > 1000 | – | – |
| Nc1nc(F)nc2c1ncn2[C@@H]1O[C@H](COP(=O)(O)O)[C@@H](O)[C@@H]1O [Fludarabine Phosphate] | > 1000 | 810 | > 1000 | – | IC50 [6]: 540 ± 30 nM; IC50 [7]: 840 ± 200 nM |
| COc1cc([C@@H]2c3cc4c(cc3[C@@H](O[C@@H]3O[C@@H]5CO[C@@H](C)O[C@H]5[C@H](O)[C@H]3O)[C@H]3COC(=O)[C@H]23)OCO4)cc(OC)c1O [Etoposide] | > 1000 | > 1000 | 30 | – | – |
| CCN(CC)CCCC(C)Nc1ccnc2cc(Cl)ccc12 (centres unmarked) [Chloroquine] | > 1000 | > 1000 | 460 | – | – |
| C[C@H]1O[C@@H](O[C@H]2[C@@H](O)C[C@H](O[C@H]3[C@@H](O)C[C@H](O[C@H]4CC[C@@]5(C)[C@H](CC[C@@H]6[C@@H]5CC[C@]5(C)[C@@H](C7=CC(=O)OC7)CC[C@]65O)C4)O[C@@H]3C)O[C@@H]2C)C[C@H](O)[C@@H]1O [Digitoxin] | < 70 | > 1000 | 160 | – | – |
| Nc1nc(Cl)nc2c1ncn2[C@@H]1O[C@H](CO)[C@@H](O)[C@@H]1F [Clofarabine] | 180 | > 1000 | 990 | – | – |
| Cc1c2oc3c(C)ccc(C(=O)N[C@@H]4C(=O)N[C@H](C(C)C)C(=O)N5CCC[C@H]5C(=O)N(C)CC(=O)N(C)[C@@H](C(C)C)C(=O)O[C@@H]4C)c3nc-2c(C(=O)N[C@@H]2C(=O)N[C@H](C(C)C)C(=O)N3CCC[C@H]3C(=O)N(C)CC(=O)N(C)[C@@H](C(C)C)C(=O)O[C@@H]2C)c(N)c1=O [Dactinomycin] (I: T[dV]P[Sar][NMeV] / II: T[dV]P[Sar][NMeV]; ester I:1-I:C, II:1-II:C; linker I:N-II:N via Actinocin(9to1)) | < 70 | > 1000 | < 70 | > 50 | – |
| COc1cccc2c1C(=O)c1c(O)c3c(c(O)c1C2=O)C[C@@](O)(C(C)=O)C[C@@H]3O[C@H]1C[C@H](N)[C@H](O)[C@H](C)O1 [Daunorubicin] | < 70 | > 1000 | 170 | > 50 | – |
| C[C@@H]1O[C@@H](O[C@H]2C[C@@H](O)[C@]3(CO)[C@H]4[C@H](O)C[C@]5(C)[C@@H](C6=CC(=O)OC6)CC[C@]5(O)[C@@H]4CC[C@]3(O)C2)[C@H](O)[C@H](O)[C@H]1O [Ouabain] | < 70 | 240 | 30 | – | – |
| COc1cccc2c1C(=O)c1c(O)c3c(c(O)c1C2=O)C[C@@](O)(C(=O)CO)C[C@@H]3O[C@H]1C[C@H](N)[C@H](O)[C@H](C)O1 [Doxorubicin] | 160 | > 1000 | 80 | > 50 | – |
| CCOC(=O)n1ccn(C)c1=S [Carbimazole] | < 70 | 180 | 50 | – | – |
| CC(=O)O[C@H]1C(=O)[C@@]2(C)[C@H]([C@H](OC(=O)c3ccccc3)[C@]3(O)C[C@H](OC(=O)[C@H](O)[C@@H](NC(=O)c4ccccc4)c4ccccc4)C(C)=C1C3(C)C)[C@]1(OC(C)=O)CO[C@@H]1C[C@@H]2O [Paclitaxel] | 200 | > 1000 | > 1000 | – | – |
| CN(C)c1ccc(C(=C2C=CC(=[N+](C)C)C=C2)c2ccc(N(C)C)cc2)cc1 [Gentian Violet] | 160 | 960 | 250 | – | – |
| CC(=O)[C@]1(O)Cc2c(O)c3c(c(O)c2[C@@H](O[C@H]2C[C@H](N)[C@H](O)[C@H](C)O2)C1)C(=O)c1ccccc1C3=O [Idarubicin] | < 70 | 690 | 50 | > 50 | IC50 [8]: 70 ± 3 nM; IC50 [6]: 130 ± 40 nM; IC50 [7]: 50 ± 10 nM |
| C#C[C@]1(O)CC[C@H]2[C@@H]3CCC4=Cc5oncc5C[C@]4(C)[C@H]3CC[C@@]21C [Danazol] | > 1000 | > 1000 | 670 | – | – |
| C[C@H]1O[C@@H](O[C@H]2[C@@H](O)C[C@H](O[C@H]3[C@@H](O)C[C@H](O[C@H]4CC[C@@]5(C)[C@H](CC[C@@H]6[C@@H]5C[C@@H](O)[C@]5(C)[C@@H](C7=CC(=O)OC7)CC[C@]65O)C4)O[C@@H]3C)O[C@@H]2C)C[C@H](O)[C@@H]1O [Digoxin] | 160 | 930 | 790 | > 50 | – |
| Plicamycin | – | – | – | – | IC50 [2]: 150 nM; IC50 [1]: 350 nM; inhibition against Hs 919.T. cell proliferation ([5]; 1 μM drug): greater than 50% |
| Nc1nc(Cl)nc2c1ncn2[C@H]1C[C@H](O)[C@@H](CO)O1 [Cladribine] | 540 | > 1000 | 760 | – | – |
| CC(C)C[C@H](NC(=O)[C@H](Cc1ccccc1)NC(=O)c1cnccn1)B(O)O [Bortezomib] | < 70 | 500 | < 70 | > 50 | IC50 [8]: 150 ± 10 nM; IC50 [6]: 2 ± 0.3 nM; IC50 [7]: 1 ± 1 nM |
| CC[C@@]1(O)C(=O)OCc2c1cc1n(c2=O)Cc2cc3c(CN(C)C)c(O)ccc3nc2-1 [Topotecan] | 90 | > 1000 | 440 | – | – |
